Where two headings read alike, the source gives them in different places.
Assays:
[1] = system: HCV 5a NS5A L31F replicon; test: microbe, parasite or virus in culture; format: cell-based
Excerpt: (§1) The susceptibility degrees of WT replicons in the transient assay were similar to the values obtained from a cell assay using the stable HCV replicons.

[2] = system: HCV 4a NS5A Y93H replicon; test: microbe, parasite or virus in culture; format: cell-based
Excerpt: as §1

HCV 1a Y93H replicon = test: microbe, parasite or virus in culture; format: cell-based
Excerpt: as §1

HCV 1a Y93C replicon = test: microbe, parasite or virus in culture; format: cell-based
Excerpt: as §1

HCV 1a M28T replicon = test: microbe, parasite or virus in culture; format: cell-based
Excerpt: as §1

[3] = system: HCV 4a NS5A L30H replicon; test: microbe, parasite or virus in culture; format: cell-based
Excerpt: as §1

HCV 3a NS5A WT replicon = test: microbe, parasite or virus in culture; format: cell-based
Excerpt: as §1

HCV 2a NS5A WT replicon = test: microbe, parasite or virus in culture; format: cell-based
Excerpt: as §1

HCV 1b L31F replicon = test: microbe, parasite or virus in culture; format: cell-based
Excerpt: as §1

[4] = system: HCV 1a Wild-type replicon; test: microbe, parasite or virus in culture; conditions: Hepatitis C virus, Huh-7, read-out: Mean EC50 (nM) ± SD
in vitro [5] = conditions: cattle, BT cells (uninfected)
in vitro [6] = conditions: dog, MDCK cells (uninfected)
HeLa cells = conditions: HeLa H1A cells, 10,000 nM
BVDV, HRV-16, Flu-B = test: Virus-cell protection assay, all tested viruses; format: cell-based; conditions: Bovine viral diarrhea virus isolates and strains, HRV16, all of BVDV, read-out: EC50 against any of the tested viruses
in vitro [7] = conditions: human, HeLa cells (uninfected; HeLa H1A in the text)
[8] = system: HCV genotype 1a replicon cells; test: Standard 3-day HCV replicon assay; format: cell-based; conditions: Hepatitis C virus, 72 h, 3 days, 5% fetal bovine serum
[9] = system: bovine viral diarrhea virus (BVDV); test: Virus-cell protection assay; format: cell-based; conditions: Bovine viral diarrhea virus isolates and strains, cell line BT
[10] = system: HCV genotype 6a NS5A replicon cells; test: Standard 3-day HCV replicon assay; format: cell-based; conditions: Hepatitis C virus, 72 h
[11] = system: influenza B virus (Flu-B); test: Virus-cell protection assay; format: cell-based; conditions: cell line MDCK
[12] = system: HCV genotype 4a NS5A replicon cells; test: Standard 3-day HCV replicon assay; format: cell-based; conditions: Hepatitis C virus, 72 h
[13] = system: HCV 4a NS5A L30H + Y93H replicon; format: cell-based; conditions: HCV genotype 4a, variant L30H + Y93H; EC50 relative to WT
Excerpt: as §1

[14] = system: HCV 1b L31V + Y93H replicon; format: cell-based; conditions: HCV genotype 1b, variant L31V + Y93H; EC50 relative to WT
Excerpt: as §1

[15] = system: HCV 2a NS5A F28S replicon; format: cell-based; conditions: HCV genotype 2a, variant F28S; EC50 relative to WT
Excerpt: as §1

[16] = system: HCV 6a NS5A F28S replicon; format: cell-based; conditions: HCV genotype 6a, variant F28S; EC50 relative to WT
Excerpt: as §1

[17] = system: Wild-type HCV 1b replicon; format: cell-based; conditions: Hepatitis C virus, read-out: Mean EC50 (nM)
[18] = system: HCV genotype 7a NS5A replicon cells; test: Standard 3-day HCV replicon assay; format: cell-based; conditions: Hepatitis C virus, 72 h
[19] = Hepatitis C virus, read-out: Mean EC50 (nM) ±SD

## COC(=O)N[C@H](C(=O)N1CCC[C@H]1c1ncc(-c2ccc3cc(-c4ccc5nc([C@@H]6CCCN6C(=O)[C@@H](NC(=O)OC)C(C)C)[nH]c5c4)ccc3c2)[nH]1)C(C)C [ASC16, Ravidasvir]
[1]; HCV genotype 5a, variant L31F, EC50 relative to WT
  Fold change: 76
[1]; [19]
  EC50: 6.1 ± 0.8 nM
[2]; HCV genotype 4a, variant Y93H, EC50 relative to WT
  Fold change: 210
[2]; [19]
  EC50: 3.2 ± 0.2 nM
HCV 1a Y93H replicon; HCV genotype 1a, variant Y93H, EC50 relative to WT
  Fold change: 1,630
HCV 1a Y93H replicon; [19]
  EC50: 48 ± 1 nM
HCV 1a Y93C replicon; HCV genotype 1a, variant Y93C, EC50 relative to WT
  Fold change: 169
HCV 1a Y93C replicon; [19]
  EC50: 5 ± 0.4 nM
HCV 1a M28T replicon; HCV genotype 1a, variant M28T, EC50 relative to WT
  Fold change: 189
HCV 1a M28T replicon; [19]
  EC50: 5.5 ± 2.8 nM
[3]; HCV genotype 4a, variant L30H, EC50 relative to WT
  Fold change: 887
[3]; [19]
  EC50: 14 ± 0.8 nM
HCV 3a NS5A WT replicon; HCV genotype 3a, WT, EC50 relative to WT
  Fold change: 1
HCV 3a NS5A WT replicon; [19]
  EC50: 1.2 nM
HCV 2a NS5A WT replicon; HCV genotype 2a, WT, EC50 relative to WT
  Fold change: 1
HCV 2a NS5A WT replicon; [19]
  EC50: 0.12 ± 0.06 nM
HCV 1b L31F replicon; HCV genotype 1b, variant L31F, EC50 relative to WT
  Fold change: 4.0
HCV 1b L31F replicon; [19]
  EC50: 0.05 ± 0.009 nM
[4]
  EC50: 0.03 nM
In vitro [5]
  CC50: > 10000 nM
In vitro [6]
  CC50: > 5000 nM
HeLa cells
  cytotoxicity at the highest test concentration: significant cytotoxicity
BVDV, HRV-16, Flu-B
  EC50: > 3300 nM
In vitro [7]
  CC50: > 3300 nM
[8]; read-out: EC50
  EC50: 0.09 ng/mL
[8]; read-out: EC50 (nM) Mean ± SD
  EC50: 0.12 ± 0.01 nM
[8]; read-out: EC90
  EC90: 0.24 ng/mL
[8]; read-out: EC90 (nM) Mean ± SD
  EC90: 0.32 ± 0.02 nM
[9]
  EC50: > 10000 nM
[10]
  EC50: 0.25 ng/mL
  EC90: 0.92 ng/mL
[10]; read-out: EC50 (nM) Mean ± SD
  EC50: 0.3 ± 0.1 nM
[10]; read-out: EC90 (nM) Mean ± SD
  EC90: 1.1 ± 0.3 nM
[11]
  EC50: > 5000 nM
[12]
  EC50: 0.04 ng/mL
  EC90: 0.11 ng/mL
[12]; read-out: EC50 (nM) Mean ± SD
  EC50: 0.05 ± 0.01 nM
[12]; read-out: EC90 (nM) Mean ± SD
  EC90: 0.13 ± 0.015 nM
[13]
  Fold change: 57,587
[14]
  Fold change: 37,231
[15]
  Fold change: 4,575
[16]
  Fold change: 2,146
[17]
  EC50: 0.01 nM
[18]
  EC50: 0.06 ng/mL
  EC90: 0.17 ng/mL
[18]; read-out: EC50 (nM) Mean ± SD
  EC50: 0.07 ± 0.02 nM
[18]; read-out: EC90 (nM) Mean ± SD
  EC90: 0.2 ± 0.05 nM

Reference: US20210038681A1, “PHARMACEUTICAL COMPOSITION FOR TREATING VIRAL HEPATITIS C” (priority 2018, published 2021)
